Consider six compounds from US20260217692A1 (Ascentage Pharma (Suzhou) Co., Ltd., priority 2023, published 2026).

Data set [1] is described as follows: Stability of crystal forms under stability test conditions (appearance, XRPD, HPLC). To be noted: for Total impurities: HPLC. It counts as physicochemical. As for the experimental part:
The samples were placed under the stability conditions shown in the following table, sampling was performed at the corresponding time points, and the samples were subjected to appearance and XRPD tests. […] The stability results obtained are recorded in the following table. […] The samples were placed under the stability test conditions shown in the following table, sampling was performed at different time points, and the samples were subjected to the XRPD test. […] The samples were placed in an open state under the stability test conditions of 40° C./75% RH and 90% RH; and the samples were placed in a closed state at 60° C. in a light box (the test samples in the dark were placed in the same manner as the illumination test samples, and the treatment was performed in the dark). Sampling was performed at different time points, and the samples were subjected to the XRPD test. […] The samples were placed under the stability conditions shown in the following table, sampling was performed at the corresponding time points, and the samples were subjected to appearance and XRPD tests. […] The stability results obtained are recorded in the following table.

Data set [2] can be described thus: Polymorph screening test, suspension method (crystal form by XRPD after stirring in solvent). The data set is classed as physicochemical. As for the experimental part:
(or 50° C.) for 3 days in the dark and centrifuged to remove the supernatant; the resulting precipitate was dried under vacuum (25° C., −0.1 MPa); and the resulting solid was collected and subjected to the XRPD test. The results are as follows:
(or 50° C./80° C.) for 3 days in the dark and centrifuged to remove the supernatant; and the resulting precipitate was dried under vacuum (25° C., −0.1 MPa).
(or 50° C.) for 3 days in the dark and centrifuged to remove the supernatant; and the resulting precipitate was dried under vacuum (25° C., −0.1 MPa).

The nature of data set [3]: Dynamic vapor sorption (DVS) hygroscopicity test. The data set is classed as physicochemical. To be noted: for hygroscopic weight gain (DVS curve): 25° C. and 80% RH. From the text:
In the present disclosure, the DVS test parameters are set as follows: [table]

Data set [4] is described as follows: XRPD of residual solids in solubility test in biological media. To be noted: Water; 37° C. It counts as physicochemical.
A short description of data set [5]: Solubility in biological media at 37° C. (HPLC, pH).
Data set [6] concerns multiple xenograft tumor models. To be noted: cited from earlier work.
For data set [7], the system named is EGFRT790M-mutant NSCLC xenograft tumor models. To be noted: cited from earlier work.
In another data set the test system is preclinical tumor model. To be noted: preclinical tumor model studies; cited from earlier work.
For data set [8] the following is noted: in vivo; cited from earlier work.
Where [9] appears, read: Illumination (1 ICH), 5 d and 10 d.
Where [10] appears, read: 0 d, listed as Crystal form D of the compound represented by formula I.

“And” between values parts separate entries of the source, which are not always exact repeats. Equal values may be shown once. Where a name gives a salt, the structure may show the parent alone.

Regarding `Cc1cc(Nc2ncc(Cl)c(Nc3ccccc3S(=O)(=O)C(C)C)n2)c(OC(C)C)cc1C1=CCN(C2CCOCC2)CC1` [one equivalent of succinate crystal form D], the Total impurities in [1] (0 d) worked out at 0.73%; in data set [1] (40° C./75% RH, 1 M) it was 0.74%; in [1] (40° C./75% RH, 10 d), 0.74%; in data set [1] (60° C., 1 M), 0.71%; in data set [1] (60° C., 10 d), 0.69%; in data set [1] (90% RH, 1 M), 0.96%. Besides, the Total impurities in data set [1] (90% RH, 10 d) worked out at 0.73%; in data set [1] (Illumination, 5 d), 0.86%; in data set [1] (Illumination, 10 d), 0.98%. In data set [1] (Illumination, 5 d and 10 d), the Appearance entry is reported as “Color deepening”. In addition, the “stability of crystal form in solvents, succinate polymorph screening test” value in data set [2] (in solvents) is reported as “relatively good stability”. For the same compound, the “crystal form when stirred in solvent” value in data set [2] (methanol, ethanol, acetonitrile, acetone, ethyl acetate, dichloromethane, water, n-heptane, dioxane, or mixed solvent of methanol, acetonitrile, or acetone with water, 40° C.) was “remained stable”. In data set [3], the “hygroscopic weight gain (DVS curve)” value is 0.19±0.005% and 0.19%.

Regarding `Cc1cc(Nc2ncc(Cl)c(Nc3ccccc3S(=O)(=O)C(C)C)n2)c(OC(C)C)cc1C1=CCN(C2CCOCC2)CC1.Cl`, the Appearance entry in data set [1] (0 d) is “Pale yellow powder”; in data set [1] (40° C./75% RH, 30 d) it was “Color deepening”; in data set [1] (90% RH, 30 d) it was “Color deepening”; in data set [1] (setting [9]) it was “Color deepening”. The Total impurities in [1] (0 d) turned out to be 0.10%; in [1] (40° C./75% RH, 5 d), 0.18%; in data set [1] (40° C./75% RH, 10 d), 0.53%; in data set [1] (40° C./75% RH, 30 d) it was 1.09%; in data set [1] (60° C., 5 d), 0.15%; in data set [1] (60° C., 10 d) it was 0.23%. Further, the Total impurities in data set [1] (60° C., 30 d) is on record as 0.21%; in [1] (90% RH, 5 d) it was 0.17%; in [1] (90% RH, 10 d), 0.28%; in data set [1] (90% RH, 30 d), 0.41%; in data set [1] (Illumination (1 ICH), 5 d), 0.39%; in data set [1] (Illumination (1 ICH), 10 d) it was 0.51%. Further, the Total impurities came out at 0.07% in data set [1] (In the dark, 5 d) and 0.16% in data set [1] (In the dark, 10 d). Also, the “hygroscopic weight gain (DVS curve)” value in [3] is reported as 0.15%.

In the case of `Cc1cc(Nc2ncc(Cl)c(Nc3ccccc3S(=O)(=O)C(C)C)n2)c(OC(C)C)cc1C1=CCN(C2CCOCC2)CC1` [one equivalent of maleate crystal form A], the results for the Appearance entry in data set [1] (0 d) and in [1] (setting [9]) were “Pale yellow powder” and “Color deepening”, respectively. Further, the “Crystal form (XRPD)” value in data set [1] (0 d) is “Maleate crystal form A”; in data set [1] (40° C./75% RH, 5 d, 10 d and 30 d), “Maleate crystal form A”; in data set [1] (60° C., 5 d, 10 d and 30 d), “Maleate crystal form A”; in data set [1] (90% RH, 5 d, 10 d and 30 d), “Maleate crystal form A”; in data set [1] (setting [9]) it was “Maleate crystal form A”; in data set [1] (In the dark, 5 d and 10 d), “Maleate crystal form A”. The Total impurities turned out to be 0.12% in [1] (0 d); 0.16% in data set [1] (40° C./75% RH, 5 d); 0.14% in [1] (40° C./75% RH, 10 d); 0.29% in data set [1] (40° C./75% RH, 30 d); 0.16% in data set [1] (60° C., 5 d); 0.21% in data set [1] (60° C., 10 d). Further, the Total impurities in [1] (60° C., 30 d) was found to be 0.16%; in data set [1] (90% RH, 5 d), 0.14%; in data set [1] (90% RH, 10 d) it was 0.25%; in [1] (90% RH, 30 d), 0.26%; in [1] (Illumination (1 ICH), 5 d) it was 0.26%; in [1] (Illumination (1 ICH), 10 d) it was 0.65%. For the same compound, the Total impurities in [1] (In the dark, 5 d) turned out to be 0.12%; in data set [1] (In the dark, 10 d), 0.18%. For the same compound, in data set [2] (ethanol, isopropanol, acetone, ethyl acetate, isopropyl acetate, methyl tert-butyl ether, dichloromethane, tetrahydrofuran, toluene, n-heptane, dioxane, methyl acetate, 2-methyltetrahydrofuran, cyclohexane, n-hexane, methyl ethyl ketone, or methyl isobutyl ketone), the “stability of crystal form in solvent, suspension method” value was “relatively good stability”. Besides, the “crystal form when stirred in solvent” value in data set [2] (same solvents as in b585 at 25-50° C.) is “remained stable”. For the same compound, in data set [3], the “hygroscopic weight gain (DVS curve)” value is 0.11±0.005% and 0.11%. In addition, the “hygroscopicity (DVS result in words)” value in data set [3] (80% RH) is “no hygroscopicity”. Further, the “crystal form before and after the hygroscopic test” value in data set [3] (DVS) is given as “did not change”.

Take `Cc1cc(Nc2ncc(Cl)c(Nc3ccccc3S(=O)(=O)C(C)C)n2)c(OC(C)C)cc1C1=CCN(C2CCOCC2)CC1` [crystal form D]: the XRPD entry in data set [1] (0 d) is given as “No significant change”; in data set [1] (25° C./60% RH, 10 d and 1 M) it was “No significant change”; in data set [1] (40° C./75% RH, 10 d and 1 M), “No significant change”; in data set [1] (60° C., 10 d and 1 M), “No significant change”; in [1] (90% RH, 10 d and 1 M), “No significant change”; in [1] (Illumination, 5 d and 10 d), “No significant change”. The XRPD entry in data set [1] (In the dark, 5 d and 10 d) is “No significant change”. Also, the Total impurities in data set [1] (setting [10]) amounted to 0.14%; in [1] (25° C./60% RH, 1 M) it was 0.17%; in data set [1] (25° C./60% RH, 10 d), 0.14%; in [1] (40° C./75% RH, 1 M, listed as Crystal form D of the compound represented by formula I) it was 0.17%; in data set [1] (40° C./75% RH, 10 d, listed as Crystal form D of the compound represented by formula I) it was 0.17%; in data set [1] (60° C., 1 M, listed as Crystal form D of the compound represented by formula I) it was 0.20%. Besides, the Total impurities is 0.17% in [1] (60° C., 10 d, listed as Crystal form D of the compound represented by formula I); 0.17% in [1] (90% RH, 1 M, listed as Crystal form D of the compound represented by formula I); 0.17% in [1] (90% RH, 10 d, listed as Crystal form D of the compound represented by formula I); 0.17% in [1] (Illumination, 5 d, listed as Crystal form D of the compound represented by formula I); 2.43% in data set [1] (Illumination, 10 d, listed as Crystal form D of the compound represented by formula I); 0.17% in data set [1] (In the dark, 5 d, listed as Crystal form D of the compound represented by formula I). In data set [1] (In the dark, 10 d, listed as Crystal form D of the compound represented by formula I), this compound gave a Total impurities of 0.14%. The Appearance entry in [1] (setting [10]) is reported as “No significant change”; in [1] (25° C./60% RH, 10 d and 1 M), “No significant change”; in [1] (40° C./75% RH, 10 d and 1 M, listed as Crystal form D of the compound represented by formula I), “No significant change”; in data set [1] (60° C., 10 d and 1 M, listed as Crystal form D of the compound represented by formula I), “No significant change”; in data set [1] (90% RH, 10 d and 1 M, listed as Crystal form D of the compound represented by formula I), “No significant change”; in data set [1] (Illumination, 5 d and 10 d), “Color deepening”. Also, the Appearance result in data set [1] (In the dark, 5 d and 10 d, listed as Crystal form D of the compound represented by formula I) is recorded as “No significant change”. For the same compound, in data set [3], the “hygroscopic weight gain (DVS curve)” value is 0.14±0.005% and 0.14%.

Consider Maleate, for which the “XRPD results of residual solids” value in [4] is “Crystal form A”. Also, the Solubility in data set [5] (FaSSIF-V2, 2 h) is 20 µg/mL; in data set [5] (FaSSIF-V2, 24 h) it was “<LOQ”; in data set [5] (FeSSIF-V2, 2 h), 220 µg/mL; in [5] (FeSSIF-V2, 24 h) it was 220 µg/mL; in [5] (SGF, 2 h) it was 1390 µg/mL; in data set [5] (SGF, 24 h), 1920 µg/mL. Moreover, the Solubility in [5] (Water, 2 h) is 20 µg/mL; in [5] (Water, 24 h) it was 20 µg/mL.

For the compound `Cc1cc(Nc2ncc(Cl)c(Nc3ccccc3S(=O)(=O)C(C)C)n2)c(OC(C)C)cc1C1=CCN(C2CCOCC2)CC1` [APG-2449], in [6], the anti-tumor activity result was “exhibits anti-tumor activity”. In [7], the “effect in combination with EGFR inhibitors (particularly AZD9291/osimertinib)” value is given as “synergistic effect”. In addition, the “resistance developed by the first-generation ALK inhibitor” value in the data set with preclinical tumor model is reported as “can overcome resistance”. The oral bioavailability entry in data set [8] is on record as “high oral bioavailability”.
